Patent EP4238581A1, “TARGETED DELIVERY OF OLIGONUCLEOTIDES INTO EUKARYOTIC CELLS USING HYBRID MALTOSE/CYCLODEXTRIN POLYPLEXES” (Technische Universität Dresden e. V., priority 2022, dated 2023)

Test system: 293T-PSCA cells
Assay: Endocytosis inhibitors and GFP transfection by scFv(AM1)-P-BAP hybrid polyplexes
Type: cell-based
Details: cells transfected with scFv(AM1)-P-BAP hybrid polyplexes loaded with MC encoding GFP; inhibitor concentration not given
Source text: To investigate if a receptor-mediated endocytosis contributes to uptake of scFv-P-BAP hybrid polyplexes clathrin-dependent and clathrin-independent endocytosis was blocked using chlorpromazine and filipin III.

Row | SMILES | fraction of GFP-positive 293T-PSCA cells
1 | CN(C)CCCN1c2ccccc2Sc2ccc(Cl)cc21 [chlorpromazine] | significant decrease
2 | CCCCC[C@@H](O)[C@H]1C(=O)O[C@H](C)[C@@H](O)/C=C/C=C/C=C/C=C/C=C(\C)[C@@H](O)C[C@H](O)C[C@H](O)C[C@H](O)C[C@H](O)C[C@H](O)C[C@@H]1O [filipin III] | significant decrease
